Assay results from US8450315B2, “Phosphoinositide 3-kinase inhibitor compounds and methods of use” (Genentech, Inc., priority 2006, dated 2013).

Columns and labels:
Format in all cases: biochemical
[1] = target: human PI3K isoform gamma (p110 gamma) (Homo sapiens, UniProt P48736); assay: p110 isoform selectivity scintillation proximity assay (SPA), gamma isoform; details: fold potency over gamma relative to alpha, calculated from IC50 values (SPA)
Experimental: (§1) Binding of Formula Ia and Ib compounds from Tables 1a and 1b to purified preparations of p110 isoforms alpha, beta, delta, and gamma was measured by a Scintillation Proximity Assay (SPA) to determine binding activity (IC50 μMol) and selectivity of binding of beta, delta, and gamma isoforms relative to alpha (Example 365). These values are expressed in Table 2.
(§2) The ability of Formula Ia and Ib compounds from Tables 1a and 1b to inhibit the lipid kinase activity of purified preparations of human PI3K isoforms alpha, beta, delta, and gamma was determined by a radiometric scintillation proximity assay (SPA, GE Healthcare, Amersham Biosciences). Concentration dependent inhibition at 50% (IC50 μMol) was determined for all four isoforms […] and fold potency over beta, delta, and gamma relative to alpha was calculated for a selection of compounds in Table 2. Each compound has a p110 alpha IC50<1 μMol.

[2] = target: human PI3K isoform beta (p110 beta) (Homo sapiens, UniProt P42338); assay: p110 isoform selectivity scintillation proximity assay (SPA), beta isoform; details: fold potency over beta relative to alpha, calculated from IC50 values (SPA)
Sequence of human PI3K isoform beta (p110 beta) (P42338 whole entry, canonical isoform): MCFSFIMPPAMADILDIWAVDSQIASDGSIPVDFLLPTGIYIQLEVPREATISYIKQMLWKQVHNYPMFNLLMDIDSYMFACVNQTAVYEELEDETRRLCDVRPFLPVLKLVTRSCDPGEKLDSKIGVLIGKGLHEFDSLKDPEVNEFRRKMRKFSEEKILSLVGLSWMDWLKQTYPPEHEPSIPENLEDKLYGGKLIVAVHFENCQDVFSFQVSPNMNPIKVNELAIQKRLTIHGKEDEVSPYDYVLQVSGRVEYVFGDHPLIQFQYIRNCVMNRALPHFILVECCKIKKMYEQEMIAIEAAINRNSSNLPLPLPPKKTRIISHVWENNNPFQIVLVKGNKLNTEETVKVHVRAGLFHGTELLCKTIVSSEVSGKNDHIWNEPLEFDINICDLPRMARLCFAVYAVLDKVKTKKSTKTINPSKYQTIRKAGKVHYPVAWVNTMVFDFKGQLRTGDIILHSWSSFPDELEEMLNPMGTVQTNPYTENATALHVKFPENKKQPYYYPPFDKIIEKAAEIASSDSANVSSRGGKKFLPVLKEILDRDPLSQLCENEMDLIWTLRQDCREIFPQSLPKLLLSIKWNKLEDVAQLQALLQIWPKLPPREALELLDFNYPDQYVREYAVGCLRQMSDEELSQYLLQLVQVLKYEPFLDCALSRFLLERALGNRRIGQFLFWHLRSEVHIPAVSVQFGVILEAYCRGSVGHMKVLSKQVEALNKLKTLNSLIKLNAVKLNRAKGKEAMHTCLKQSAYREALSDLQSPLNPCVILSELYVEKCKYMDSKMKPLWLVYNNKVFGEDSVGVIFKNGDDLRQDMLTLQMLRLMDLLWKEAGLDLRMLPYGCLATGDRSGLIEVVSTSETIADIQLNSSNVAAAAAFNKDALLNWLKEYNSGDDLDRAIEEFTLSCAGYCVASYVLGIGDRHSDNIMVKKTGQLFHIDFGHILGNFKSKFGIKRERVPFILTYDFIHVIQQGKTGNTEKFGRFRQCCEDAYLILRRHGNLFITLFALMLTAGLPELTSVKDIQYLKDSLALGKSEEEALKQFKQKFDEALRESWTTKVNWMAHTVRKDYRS
Sequence of human PI3K isoform beta (p110 beta) (P27986 whole entry partner, canonical isoform): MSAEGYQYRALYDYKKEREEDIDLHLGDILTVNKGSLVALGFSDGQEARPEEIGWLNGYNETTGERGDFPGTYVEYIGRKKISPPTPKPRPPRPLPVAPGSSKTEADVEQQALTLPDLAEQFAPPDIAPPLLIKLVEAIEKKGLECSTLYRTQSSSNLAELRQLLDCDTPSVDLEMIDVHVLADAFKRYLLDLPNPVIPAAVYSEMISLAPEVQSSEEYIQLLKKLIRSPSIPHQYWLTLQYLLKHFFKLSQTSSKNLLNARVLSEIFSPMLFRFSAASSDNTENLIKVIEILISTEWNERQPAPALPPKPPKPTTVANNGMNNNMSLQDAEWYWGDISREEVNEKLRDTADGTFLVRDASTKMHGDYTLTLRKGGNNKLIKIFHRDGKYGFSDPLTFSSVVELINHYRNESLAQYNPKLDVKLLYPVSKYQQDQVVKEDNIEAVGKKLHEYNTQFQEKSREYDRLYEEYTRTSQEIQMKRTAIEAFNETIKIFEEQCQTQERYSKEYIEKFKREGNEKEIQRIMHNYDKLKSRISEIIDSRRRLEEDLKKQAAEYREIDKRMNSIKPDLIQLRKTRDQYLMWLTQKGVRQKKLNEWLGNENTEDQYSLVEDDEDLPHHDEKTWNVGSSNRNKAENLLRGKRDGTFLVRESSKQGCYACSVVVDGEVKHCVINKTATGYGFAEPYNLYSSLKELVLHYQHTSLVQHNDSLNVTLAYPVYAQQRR
Experimental: as §1, §2

[3] = target: human PI3K isoform delta (p110 delta) (Homo sapiens, UniProt O00329); assay: p110 isoform selectivity scintillation proximity assay (SPA), delta isoform; details: fold potency over delta relative to alpha, calculated from IC50 values (SPA)
Sequence of human PI3K isoform delta (p110 delta) (O00329 whole entry, canonical isoform): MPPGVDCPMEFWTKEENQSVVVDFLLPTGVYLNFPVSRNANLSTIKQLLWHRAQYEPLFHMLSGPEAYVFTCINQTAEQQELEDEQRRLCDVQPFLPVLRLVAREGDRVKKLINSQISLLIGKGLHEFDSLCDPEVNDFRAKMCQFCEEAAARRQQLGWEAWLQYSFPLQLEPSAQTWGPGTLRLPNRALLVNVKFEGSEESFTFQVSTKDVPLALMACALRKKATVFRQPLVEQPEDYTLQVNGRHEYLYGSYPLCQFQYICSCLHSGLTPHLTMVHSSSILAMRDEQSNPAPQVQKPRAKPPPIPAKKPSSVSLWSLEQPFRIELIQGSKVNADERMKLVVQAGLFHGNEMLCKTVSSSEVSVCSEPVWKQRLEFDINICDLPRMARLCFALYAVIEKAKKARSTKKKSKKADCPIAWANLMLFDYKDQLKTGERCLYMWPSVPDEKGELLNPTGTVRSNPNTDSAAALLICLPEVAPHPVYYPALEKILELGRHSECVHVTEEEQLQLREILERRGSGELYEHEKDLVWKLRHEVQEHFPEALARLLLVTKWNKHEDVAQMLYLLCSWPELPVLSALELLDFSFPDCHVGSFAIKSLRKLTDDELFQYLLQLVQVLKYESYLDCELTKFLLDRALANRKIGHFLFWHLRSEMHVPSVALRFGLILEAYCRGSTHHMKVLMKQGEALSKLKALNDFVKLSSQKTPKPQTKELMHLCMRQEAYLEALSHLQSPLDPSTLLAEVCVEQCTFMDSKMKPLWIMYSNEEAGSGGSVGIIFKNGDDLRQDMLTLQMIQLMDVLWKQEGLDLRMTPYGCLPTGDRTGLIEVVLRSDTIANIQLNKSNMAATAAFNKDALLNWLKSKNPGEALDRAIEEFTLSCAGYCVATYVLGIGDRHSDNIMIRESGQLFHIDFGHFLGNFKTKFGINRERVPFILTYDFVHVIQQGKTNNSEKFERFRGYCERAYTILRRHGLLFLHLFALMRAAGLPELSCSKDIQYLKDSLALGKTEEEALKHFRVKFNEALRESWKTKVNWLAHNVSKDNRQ
Sequence of human PI3K isoform delta (p110 delta) (P27986 whole entry partner, canonical isoform): as the sequence (P27986 whole entry partner, canonical isoform) above
Experimental: as §1, §2

Sequence of human PI3K isoform gamma (p110 gamma) (P48736 whole entry, canonical isoform): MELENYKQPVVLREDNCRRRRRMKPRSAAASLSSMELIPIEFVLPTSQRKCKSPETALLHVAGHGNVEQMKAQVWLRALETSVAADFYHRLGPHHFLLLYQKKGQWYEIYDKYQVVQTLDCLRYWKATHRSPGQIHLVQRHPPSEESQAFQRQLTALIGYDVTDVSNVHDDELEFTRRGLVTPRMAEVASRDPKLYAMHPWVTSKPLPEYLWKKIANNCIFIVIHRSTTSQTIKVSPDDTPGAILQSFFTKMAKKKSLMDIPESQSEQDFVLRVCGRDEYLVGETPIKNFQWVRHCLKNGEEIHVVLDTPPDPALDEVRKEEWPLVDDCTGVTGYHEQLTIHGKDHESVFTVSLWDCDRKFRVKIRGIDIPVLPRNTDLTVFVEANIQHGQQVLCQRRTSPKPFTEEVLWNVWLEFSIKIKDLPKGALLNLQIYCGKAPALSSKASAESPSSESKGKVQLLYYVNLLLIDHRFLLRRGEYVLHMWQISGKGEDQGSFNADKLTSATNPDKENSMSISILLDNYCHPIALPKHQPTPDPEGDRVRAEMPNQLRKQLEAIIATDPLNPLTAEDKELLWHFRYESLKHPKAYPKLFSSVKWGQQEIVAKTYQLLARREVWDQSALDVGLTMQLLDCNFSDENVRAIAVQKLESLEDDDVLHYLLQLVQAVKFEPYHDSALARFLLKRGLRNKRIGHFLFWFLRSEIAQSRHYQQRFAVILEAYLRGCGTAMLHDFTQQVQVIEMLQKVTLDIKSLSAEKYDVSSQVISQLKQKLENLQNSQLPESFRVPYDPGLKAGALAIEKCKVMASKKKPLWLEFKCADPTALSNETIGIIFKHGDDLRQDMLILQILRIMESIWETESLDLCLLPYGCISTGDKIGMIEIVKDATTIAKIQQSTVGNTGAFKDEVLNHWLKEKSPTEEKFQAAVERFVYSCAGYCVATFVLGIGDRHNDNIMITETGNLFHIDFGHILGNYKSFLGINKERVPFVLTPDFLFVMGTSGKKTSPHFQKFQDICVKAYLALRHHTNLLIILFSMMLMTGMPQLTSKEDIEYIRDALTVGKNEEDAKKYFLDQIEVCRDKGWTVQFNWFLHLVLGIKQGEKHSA

alpha/gamma [1]	alpha/beta [2]	alpha/delta [3]	SMILES
>10	<10	<10	O=C(NCc1cc2nc(-c3cccc4[nH]ncc34)nc(N3CCOCC3)c2s1)N1CCOCC1 [Compound 305, N-((2-(1H-indazol-4-yl)-4-morpholinothieno[3,2-d]pyrimidin-6-yl)methyl)morpholine-4-carboxamide]
>10	<10	<10	c1cc(-c2nc(N3CCOCC3)c3sc(Cn4ccnc4)cc3n2)c2cn[nH]c2c1 [Compound 312, 6-((1H-imidazol-1-yl)methyl)-2-(1H-indazol-4-yl)-4-morpholinothieno[3,2-d]pyrimidine]
>10	>10	<10	COC/C=C/c1cc2nc(-c3cccc4[nH]ncc34)nc(N3CCOCC3)c2s1 [Compound 334]
>10	>10	<10	C[C@H](O)CNC(=O)c1cccc(-c2cc3nc(-c4cccc5[nH]ncc45)nc(N4CCOCC4)c3s2)c1 [Compound 336, 3-(2-(1H-indazol-4-yl)-4-morpholinothieno[3,2-d]pyrimidin-6-yl)-N-((S)-2-hydroxypropyl)benzamide]
>10	>10	<10	O=C(O)c1cccc(-c2cc3nc(-c4cccc5[nH]ncc45)nc(N4CCOCC4)c3s2)c1 [Compound 338, 3-(2-(1H-indazol-4-yl)-4-morpholinothieno[3,2-d]pyrimidin-6-yl)benzoic acid]
>10	<10	<10	CS(=O)(=O)N1CCC(C(O)c2cc3nc(-c4cccc5[nH]ncc45)nc(N4CCOCC4)c3s2)CC1 (stereo not drawn) [Compound 353, (2-(1H-indazol-4-yl)-4-morpholinothieno[3,2-d]pyrimidin-6-yl)(4-N-methylsulfonylpiperidin-4-yl)methanol]
>10	>10	>10	Cc1c(-c2cccc(S(C)(=O)=O)c2)sc2c(N3CCOCC3)nc(-c3cccc4[nH]ncc34)nc12 [Compound 360, 2-(1H-indazol-4-yl)-7-methyl-6-(3-(methylsulfonyl)phenyl)-4-morpholinothieno[3,2-d]pyrimidine]
>10	<10	<10	COc1ccc(NCc2cc3nc(-c4cccc5[nH]ncc45)nc(N4CCOCC4)c3s2)cn1 [Compound 368, N-((2-(1H-indazol-4-yl)-4-morpholinothieno[3,2-d]pyrimidin-6-yl)methyl)-6-methoxypyridin-3-amine]
>10	>10	<10	CC(C)(NC(=O)c1ccccc1)c1cc2nc(-c3cccc4[nH]ncc34)nc(N3CCOCC3)c2s1 [Compound 388, N-(2-(2-(1H-indazol-4-yl)-4-morpholinothieno[3,2-d]pyrimidin-6-yl)propan-2-yl)benzamide]
<10	<10	<10	CN(Cc1cc2nc(-c3cccc4[nH]ncc34)nc(N3CCOCC3)c2s1)C(=O)c1ccccc1 [Compound 390, N-((2-(1H-indazol-4-yl)-4-morpholinothieno[3,2-d]pyrimidin-6-yl)methyl)-N-methylbenzamide]

Second part, the compound before the results:

SMILES	alpha/gamma [1]	alpha/beta [2]	alpha/delta [3]
CNC(=O)c1cccc(-c2cc3nc(-c4cccc5[nH]ncc45)nc(N4CCOCC4)c3s2)c1 [Compound 101, 3-(2-(1H-indazol-4-yl)-4-morpholinothieno[3,2-d]pyrimidin-6-yl)-N-methylbenzamide]	>10	>10	<10
OC1(c2cc3nc(-c4cccc5[nH]ncc45)nc(N4CCOCC4)c3s2)CCC1 [Compound 133, 1-(2-(1H-indazol-4-yl)-4-morpholinothieno[3,2-d]pyrimidin-6-yl)cyclobutanol]	>10	<10	<10
NCC(=O)Nc1cccc(-c2cc3nc(-c4cccc5[nH]ncc45)nc(N4CCOCC4)c3s2)c1 [Compound 137, N-(3-(2-(1H-indazol-4-yl)-4-morpholinothieno[3,2-d]pyrimidin-6-yl)phenyl)-2-aminoacetamide]	<10	>10	<10
CCNC(=O)c1cc2nc(-c3cccc4[nH]ncc34)nc(N3CCOCC3)c2s1 [Compound 170, N-ethyl-2-(1H-indazol-4-yl)-4-morpholinothieno[3,2-d]pyrimidine-6-carboxamide]	<10	<10	<10
O=C(NOCC1CC1)c1cc2nc(-c3cccc4[nH]ncc34)nc(N3CCOCC3)c2s1 [Compound 202, N-(cyclopropylmethoxy)-2-(1H-indazol-4-yl)-4-morpholinothieno[3,2-d]pyrimidine-6-carboxamide]	>10	<10	<10
c1cc(-c2nc(N3CCOCC3)c3sc(-c4cn[nH]c4)cc3n2)c2cn[nH]c2c1 [Compound 203, 2-(1H-indazol-4-yl)-4-morpholino-6-(1H-pyrazol-4-yl)thieno[3,2-d]pyrimidine]	>10	<10	<10
C[C@H](O)CNCc1cc2nc(-c3cccc4[nH]ncc34)nc(N3CCOCC3)c2s1 [Compound 205, (S)-1-((2-(1H-indazol-4-yl)-4-morpholinothieno[3,2-d]pyrimidin-6-yl)methylamino)propan-2-ol]	>10	<10	<10
O=S(=O)(Nc1cccc(O)c1)c1cc2nc(-c3cccc4[nH]ncc34)nc(N3CCOCC3)c2s1 [Compound 208, 6-(3-hydroxyphenylaminosulfonyl)-2-(1H-indazol-4-yl)-4-morpholinothieno[3,2-d]pyrimidine]	>10	>10	<10
O=S(=O)(NCCN1CCCCC1)c1cc2nc(-c3cccc4[nH]ncc34)nc(N3CCOCC3)c2s1 [Compound 218, 6-(2-piperidinylethylaminosulfonyl)-2-(1H-indazol-4-yl)-4-morpholinothieno[3,2-d]pyrimidine]	>10	>10	<10
OCCNc1cc2nc(-c3cccc4[nH]ncc34)nc(N3CCOCC3)c2s1 [Compound 226, 2-(2-(1H-indazol-4-yl)-4-morpholinothieno[3,2-d]pyrimidin-6-ylamino)ethanol]	>10	<10	<10
c1ccc(-c2cc3nc(-c4cccc5[nH]ncc45)nc(N4CCOCC4)c3o2)cc1 [Compound 233, 2-(1H-indazol-4-yl)-4-morpholino-6-phenylfuro[3,2-d]pyrimidine]	<10	>10	<10
CC(C)(O)c1cc2nc(-c3cccc4[nH]ncc34)nc(N3CCOCC3)c2s1 [Compound 235, 2-(2-(1H-indazol-4-yl)-4-morpholinothieno[3,2-d]pyrimidin-6-yl)propan-2-ol]	>10	>10	<10
OCc1cccc(-c2cc3nc(-c4cccc5[nH]ncc45)nc(N4CCOCC4)c3s2)c1 [Compound 237, (3-(2-(1H-indazol-4-yl)-4-morpholinothieno[3,2-d]pyrimidin-6-yl)phenyl)methanol]	>10	>10	<10
CC(=O)Nc1cccc(-c2cc3nc(-c4cccc5[nH]ncc45)nc(N4CCOCC4)c3s2)c1 [Compound 238, N-(3-(2-(1H-indazol-4-yl)-4-morpholinothieno[3,2-d]pyrimidin-6-yl)phenyl)acetamide]	>10	>10	<10
O=C(NCCN1CCCCC1)c1cc2nc(-c3cccc4[nH]ncc34)nc(N3CCOCC3)c2s1 [Compound 257, 2-(1H-indazol-4-yl)-4-morpholino-N-(2-(piperidin-1-yl)ethyl)thieno[3,2-d]pyrimidine-6-carboxamide]	>10	<10	<10
CN(C)C(=O)c1cc2nc(-c3cccc4[nH]ncc34)nc(N3CCOCC3)c2s1 [Compound 263, 2-(1H-indazol-4-yl)-N,N-dimethyl-4-morpholinothieno[3,2-d]pyrimidine-6-carboxamide]	>10	<10	<10
CS(=O)(=O)c1cccc(-c2cc3nc(-c4cccc5[nH]ncc45)nc(N4CCOCC4)c3s2)c1 [Compound 265, 2-(1H-indazol-4-yl)-6-(3-(methylsulfonyl)phenyl)-4-morpholinothieno[3,2-d]pyrimidine]	>10	>10	<10
CN(C)Cc1cc2nc(-c3cccc4[nH]ncc34)nc(N3CCOCC3)c2s1 [Compound 304, (2-(1H-indazol-4-yl)-4-morpholinothieno[3,2-d]pyrimidin-6-yl)-N,N-dimethylmethanamine]	>10	10	<10
